Literature values, collected in patent publication US12274713B2, “Nutraceutical composition comprising a water-soluble fullerene and a ketone” (priority 2021, dated 2025).

Tested on: tumor growth and metastasis
Details: Prylutska et al.

Structure (SMILES): c12c3c4c5c1c1c6c7c2c2c8c3c3c9c4c4c%10c5c5c1c1c6c6c%11c7c2c2c7c8c3c3c8c9c4c4c9c%10c5c5c1c1c6c6c%11c2c2c7c3c3c8c4c4c9c5c1c1c6c2c3c41 [60-carbon fullerene, Buckminsterfullerene]
- tumor growth and metastasis: inhibit tumor growth and metastasis
